Consider 15 compounds from patent publication US11427548B2 (Arvinas Operations, Inc., priority 2015, dated 2022).

For orientation: Dmax means the largest share of the target that was removed. As usually defined, the DC50 is the midpoint of the concentration-degradation curve.

What all share (assay type): cell-based
Experiment [1] has as its system VCaP cells. Kind of experiment: VCaP cell proliferation assay (Cell Titer Glo), GI50. To be noted: Homo sapiens; VCaP cells, 0.1 nM R1881; Table 38 (ABM); read-out: GI50, Inhibition of VCaP Proliferation. As for the experimental part: 2. VCaP Cell Proliferation Assay.
VCaP cells are plated 7,500/well 200 μL/well in VCaP assay medium [Phenol red free RPMI (Gibco Cat #11835-030); 5% Charcoal Stripped (Dextran treated) FBS (Omega Scientific, Cat #FB-04); Pen/Strep Life Technologies (Gibco Cat #: 10378-016); 0.1 nM R1881 (Sigma, Cat #R0908) is added upon the start of the assay, not during initial plating of the cells).
The assay was performed as follows: the cells are grown for a minimum of 3 days to deplete androgens; dosing of PROTACs and R1881 is performed as for AR ELISA; the baseline reading of Cell Titer Glo can be performed on day of dosing.
VCaP cells with 0.1 nM R1881 will double once in 4 days. Gently draw off 110 μL of media so as not to disturb the adherent cells; add 110 μL of CTG; incubate with slow shaking for 20 minutes; and read luminescence on a plate reader.
(In general: ATP-based viability assays read luminescence as a measure of living cells.)

For experiment [2], the target named is T1, Androgen Receptor (Homo sapiens, UniProt P10275).
T1 construct: endogenous in cells; host or cells: VCaP cells
T1 sequence (P10275 1-920): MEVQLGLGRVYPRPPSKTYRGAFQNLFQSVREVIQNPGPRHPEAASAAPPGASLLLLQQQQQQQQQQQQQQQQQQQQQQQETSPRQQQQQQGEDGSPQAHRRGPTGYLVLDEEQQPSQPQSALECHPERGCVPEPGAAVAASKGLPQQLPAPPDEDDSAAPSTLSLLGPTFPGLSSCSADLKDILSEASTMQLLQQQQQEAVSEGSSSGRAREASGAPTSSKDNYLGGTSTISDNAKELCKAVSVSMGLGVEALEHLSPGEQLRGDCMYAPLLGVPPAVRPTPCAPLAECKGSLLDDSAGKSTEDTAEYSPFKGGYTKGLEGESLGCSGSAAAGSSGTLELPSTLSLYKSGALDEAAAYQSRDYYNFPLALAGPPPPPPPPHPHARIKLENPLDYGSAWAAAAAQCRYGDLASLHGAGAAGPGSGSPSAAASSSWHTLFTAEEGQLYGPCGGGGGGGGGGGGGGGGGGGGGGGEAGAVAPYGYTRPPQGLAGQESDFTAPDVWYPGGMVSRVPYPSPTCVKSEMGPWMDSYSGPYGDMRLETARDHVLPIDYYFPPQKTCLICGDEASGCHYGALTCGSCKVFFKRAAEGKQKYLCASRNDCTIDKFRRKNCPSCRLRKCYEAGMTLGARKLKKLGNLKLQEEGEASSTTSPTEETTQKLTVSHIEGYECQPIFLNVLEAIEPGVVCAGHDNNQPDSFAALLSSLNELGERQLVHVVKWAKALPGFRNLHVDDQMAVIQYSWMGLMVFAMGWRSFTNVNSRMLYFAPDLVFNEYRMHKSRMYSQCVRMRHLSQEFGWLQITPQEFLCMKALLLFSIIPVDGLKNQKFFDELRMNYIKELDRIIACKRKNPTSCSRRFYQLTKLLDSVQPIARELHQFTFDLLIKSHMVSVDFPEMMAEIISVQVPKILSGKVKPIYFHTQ
Kind of experiment: Androgen Receptor ELISA assay (PathScan AR ELISA) in VCaP cells: AR degradation, Dmax and DC50. To be noted: for Dmax: VCaP, read-out: VCaP Dmax (%); for DC50: read-out: VCaP DC50, VCaP cells, concentration that caused 50% Androgen Receptor degradation. A digest of the protocol: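 VCaP cells, 30,000/well, grown ≥3 days in phenol red-free RPMI with 5% charcoal-stripped FBS; compound added in 0.1% DMSO with 0.1 nM R1881, 7 half-log doses, 24 h. Lysate AR quantified by PathScan sandwich ELISA, HRP/TMB read at 450 nm, giving DC50 and Dmax.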
A general note: In an ELISA, binding on a coated surface is turned into a signal by an enzyme label.

Experiment [3] concerns the target T2, Androgen Receptor (Homo sapiens, UniProt P10275+P40337, T878A).
T2 construct: Compounds have been evaluated in this assay in LNCaP and/or VCaP cells utilizing similar protocols; endogenous in cells; host or cells: LNCaP cells
Nature of the experiment: Androgen Receptor ELISA assay (PathScan AR ELISA) in LNCaP cells: AR degradation, Dmax and DC50. To be noted: for DC50: concentration that caused 50% Androgen Receptor degradation; for Dmax: highest percentage of Androgen Receptor degradation.

T2 sequence (P10275 whole entry T878A): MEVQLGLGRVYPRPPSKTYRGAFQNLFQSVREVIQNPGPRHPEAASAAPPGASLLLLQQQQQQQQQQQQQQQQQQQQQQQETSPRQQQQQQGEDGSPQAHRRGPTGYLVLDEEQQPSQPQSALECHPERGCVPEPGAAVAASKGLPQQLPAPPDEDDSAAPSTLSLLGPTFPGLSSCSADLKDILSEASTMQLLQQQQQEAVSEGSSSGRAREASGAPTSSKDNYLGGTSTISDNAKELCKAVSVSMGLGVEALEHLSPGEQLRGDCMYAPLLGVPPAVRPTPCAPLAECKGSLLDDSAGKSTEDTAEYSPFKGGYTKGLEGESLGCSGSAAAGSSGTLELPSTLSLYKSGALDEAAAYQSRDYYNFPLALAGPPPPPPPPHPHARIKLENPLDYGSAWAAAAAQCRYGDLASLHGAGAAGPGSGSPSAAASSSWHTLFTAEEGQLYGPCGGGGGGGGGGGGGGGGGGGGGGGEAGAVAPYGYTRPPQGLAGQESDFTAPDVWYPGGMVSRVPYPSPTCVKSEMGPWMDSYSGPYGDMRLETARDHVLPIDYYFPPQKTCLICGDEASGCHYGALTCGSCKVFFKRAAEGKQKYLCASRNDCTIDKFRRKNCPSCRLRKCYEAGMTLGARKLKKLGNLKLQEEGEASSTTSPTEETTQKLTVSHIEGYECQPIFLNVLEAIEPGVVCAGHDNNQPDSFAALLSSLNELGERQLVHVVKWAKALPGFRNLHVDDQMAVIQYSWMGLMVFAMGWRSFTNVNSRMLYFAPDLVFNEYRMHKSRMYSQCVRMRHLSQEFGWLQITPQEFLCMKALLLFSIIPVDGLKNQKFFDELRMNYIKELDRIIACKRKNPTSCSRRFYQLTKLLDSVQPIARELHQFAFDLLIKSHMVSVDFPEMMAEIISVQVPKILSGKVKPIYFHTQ
T2 sequence (P40337 whole entry): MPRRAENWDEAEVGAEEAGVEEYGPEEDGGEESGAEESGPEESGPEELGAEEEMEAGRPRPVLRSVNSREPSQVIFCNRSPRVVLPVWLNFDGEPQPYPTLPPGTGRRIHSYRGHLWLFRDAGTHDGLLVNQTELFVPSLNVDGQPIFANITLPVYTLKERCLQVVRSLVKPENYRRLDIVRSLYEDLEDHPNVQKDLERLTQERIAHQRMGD
T2 sequence (Q15369 whole entry partner): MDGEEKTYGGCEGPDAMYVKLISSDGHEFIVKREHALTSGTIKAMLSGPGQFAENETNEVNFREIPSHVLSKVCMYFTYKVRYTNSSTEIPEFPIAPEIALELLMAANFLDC
T2 sequence (Q15370 whole entry partner): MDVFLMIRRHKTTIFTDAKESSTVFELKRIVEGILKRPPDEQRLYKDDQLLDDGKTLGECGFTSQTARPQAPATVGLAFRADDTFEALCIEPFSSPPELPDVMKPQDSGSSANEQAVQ

With `CC1(C)[C@H](N)C(C)(C)[C@H]1Oc1ccc(C#N)c(Cl)c1` [ABM-26], in experiment [1], the GI50 is 51 to 250 nM.
The same measure, in the same setting: to `CC1(C)[C@H](N)C(C)(C)[C@@H]1Oc1ccc(C#N)c(Cl)c1` [ABM-27] belongs not below 251 nM; to `CC(C)(C)OC(=O)N[C@H]1C(C)(C)[C@H](Oc2ccc(C#N)c(Cl)c2)C1(C)C` [ABM-29], 51 to 250 nM.
The same measure, in the same setting: to `CC1(C)[C@H](NC(=O)c2ccc(N)cc2)C(C)(C)[C@H]1Oc1ccc(C#N)c(Cl)c1` [ABM-30] belongs not above 50 nM.
Same read-out and setting: to `CC1(C)[C@H](NC(=O)c2cnc(N)cn2)C(C)(C)[C@H]1Oc1ccc(C#N)c(Cl)c1` [ABM-31] belongs 51 to 250 nM.
For the compound `COc1ccc(C(=O)N[C@H]2C(C)(C)[C@H](Oc3ccc(C#N)c(Cl)c3)C2(C)C)cc1` [ABM-33], in experiment [1], the GI50 fell in the range of 51 to 250 nM.
On the same count and under the same terms, to `CC1(C)[C@H](NC(=O)c2cnn(CCO)c2)C(C)(C)[C@H]1Oc1ccc(C#N)c(Cl)c1` [ABM-34] belongs not below 251 nM; to `CC1(C)[C@H](NC(=O)c2ccc(NCCCCCO)cc2)C(C)(C)[C@H]1Oc1ccc(C#N)c(Cl)c1` [ABM-36], not above 50 nM; to `CC(C)(C)OC(=O)COCCCCCNc1ccc(C(=O)N[C@H]2C(C)(C)[C@H](Oc3ccc(C#N)c(Cl)c3)C2(C)C)cc1` [ABM-37], not above 50 nM.
Regarding `Cc1ncsc1-c1ccc(CNC(=O)[C@@H]2C[C@@H](O)CN2C(=O)[C@@H](NC(=O)CCc2ccc(OCCOc3ccc(N4C(=S)N(c5ccc(C#N)c(C(F)(F)F)c5)C(=O)C4(C)C)cc3)cc2)C(C)(C)C)cc1` [Example 303], in experiment [2], the Dmax fell in the range of 51 to 70% and the DC50 was less than 50 nM. Besides, in experiment [3], the DC50 is less than 50 nM and the maximal degradation (Dmax) is more than 71%.
`Cc1ncsc1-c1ccc(CNC(=O)[C@@H]2C[C@@H](O)CN2C(=O)[C@@H](NC(=O)CCOc2ccc(CCOc3ccc(N4C(=S)N(c5ccc(C#N)c(C(F)(F)F)c5)C(=O)C4(C)C)cc3)cc2)C(C)(C)C)cc1` [Example 306]: the Dmax was 51 to 70% in experiment [2] and more than 71% in experiment [3]. The compound also yielded a DC50 in experiment [3] of less than 50 nM.
On to `Cc1ncsc1-c1ccc(CNC(=O)[C@@H]2C[C@@H](O)CN2C(=O)[C@@H](NC(=O)COCCCOCCCOc2ccc(CN3C(=S)N(c4ccc(C#N)c(C(F)(F)F)c4)C(=O)C3(C)C)cc2)C(C)(C)C)cc1` [Example 307], for which, in experiment [2], the Dmax lay in the range of 51 to 70% and the 50% degradation concentration (DC50) was less than 50 nM. For the same compound, in experiment [3], the DC50 was in the range of 51 to 500 nM and the Dmax was 51 to 70%.
For `Cc1ncsc1-c1ccc(CNC(=O)[C@@H]2C[C@@H](O)CN2C(=O)[C@@H](NC(=O)COCCCOCCCCOc2ccc(CN3C(=S)N(c4ccc(C#N)c(C(F)(F)F)c4)C(=O)C3(C)C)cc2)C(C)(C)C)cc1` [Example 308], the Dmax in experiment [2] and in experiment [3] was 51 to 70% in each case. Further, the DC50 in experiment [2] was less than 50 nM; in experiment [3], 51 to 500 nM.
For `Cc1ncsc1-c1ccc(CNC(=O)[C@@H]2C[C@@H](O)CN2C(=O)[C@@H](NC(=O)CCCOCCN2CCC(c3ccc(N4C(=S)N(c5ccc(C#N)c(C(F)(F)F)c5)C(=O)C4(C)C)cc3)CC2)C(C)(C)C)cc1` [Example 309], in experiment [2], the greatest degradation seen (Dmax) fell in the range of 26 to 50% and the half-maximal degradation concentration (DC50) was less than 50 nM. Also, in experiment [3], the half-maximal degradation concentration (DC50) is more than 501 nM and the greatest degradation seen (Dmax) was in the range of 26 to 50%.
In the case of `Cc1ncsc1-c1ccc(CNC(=O)[C@@H]2C[C@@H](O)CN2C(=O)[C@@H](NC(=O)C(C)(C)C(O)CCCOCCCCCOc2ccc(N3C(=S)N(c4ccc(C#N)c(C(F)(F)F)c4)C(=O)C3(C)C)cc2)C(C)(C)C)cc1` (stereo partly shown) [Example 310], the Dmax in experiment [2] is less than 25%. In addition, in experiment [3], the half-maximal degradation concentration (DC50) was more than 501 nM and the greatest degradation seen (Dmax) fell in the range of 26 to 50%.
